We go through 4 compounds from ChEMBL document CHEMBL1158611, “Trichoderins, novel aminolipopeptides from a marine sponge-derived Trichoderma sp., are active against dormant mycobacteria” (2010).

One may read the MIC as the smallest concentration in the dilution series that meets the test's criterion for growth inhibition.

The test system of experiment [1] is Mycobacterium tuberculosis. Description: Antimycobacterial activity against Mycobacterium bovis BCG under aerobic condition. As to conditions: variant bovis BCG. Format: functional.
In experiment [2] the test system is Mycobacterium tuberculosis. Description: Antimycobacterial activity against Mycobacterium bovis BCG under dormancy-inducing hypoxic condition. Type of experiment: functional. The note with it: variant bovis BCG.

Converted amounts (≈) assume the structure as drawn. *1 amine or outer side, *2 acyl side, *3 side chain or, on linkers, in order; H or OH if unused. Where a SMILES comes first, the peptide text is derived from it. [ ]: non-standard residue; d: D form. The star is where a group is joined. X2 = CCC(=O)C[C@@H](O)C[C@@H](C)C[C@H](N[*:1])C(=O)[*:2]; X1 = CCC(=O)/C=C/C[C@@H](C)C[C@H](N[*:1])C(=O)[*:2]; Alaψ(CH2NMeCH2CH2OH) = C[C@@H](CN(C)CCO)N*; Decanoyl(2R-Me) = CCCCCCCC[C@@H](C)C(=O)*; Aib = CC(C)(N)C(=O)O Some results are limits rather than exact numbers.

Regarding `CCCCCCCC[C@@H](C)C(=O)N1CCC[C@H]1C(=O)N[C@@H](C[C@H](C)C[C@H](O)CC(=O)CC)C(=O)NC(C)(C)C(=O)NC(C)(C)C(=O)N[C@H](C(=O)N[C@H](C(=O)NC(C)(C)C(=O)NC(C)(C)C(=O)N[C@@H](C)CN(C)CCO)C(C)C)[C@@H](C)CC` [TRICHODERIN A] ({Decanoyl(2R-Me)}-P[X2][Aib][Aib]IV[Aib][Aib]-{Alaψ(CH2NMeCH2CH2OH)}), the MIC in experiment [1] and in experiment [2] was 0.02 µg/mL (≈ 0.0172 µM) throughout.
Take `CCCCCCCC[C@@H](C)C(=O)N1CCC[C@H]1C(=O)N[C@@H](C[C@H](C)C/C=C/C(=O)CC)C(=O)NC(C)(C)C(=O)NC(C)(C)C(=O)N[C@H](C(=O)N[C@H](C(=O)NC(C)(C)C(=O)NC(C)(C)C(=O)N[C@@H](C)CN(C)CCO)C(C)C)[C@@H](C)CC` [TRICHODERIN A1] ({Decanoyl(2R-Me)}-P[X1][Aib][Aib]IV[Aib][Aib]-{Alaψ(CH2NMeCH2CH2OH)}): the MIC in experiment [1] and in experiment [2] was 0.16 µg/mL (≈ 0.14 µM) throughout.
Turning to `NNC(=O)c1ccncc1` [ISONIAZID], the MIC is 0.03 µg/mL (≈ 0.219 µM) in experiment [1] and over 100 µg/mL in experiment [2].
Taken in the same sequence, the figures for `CCCCCCCC[C@@H](C)C(=O)N1CCC[C@H]1C(=O)N[C@@H](C[C@H](C)C[C@H](O)CC(=O)CC)C(=O)NC(C)(C)C(=O)NC(C)(C)C(=O)N[C@H](C(=O)N[C@H](C(=O)NC(C)(C)C(=O)NC(C)(C)C(=O)N[C@@H](C)CN(C)CCO)C(C)C)C(C)C` [TRICHODERIN B] ({Decanoyl(2R-Me)}-P[X2][Aib][Aib]VV[Aib][Aib]-{Alaψ(CH2NMeCH2CH2OH)}) were 0.02 µg/mL (≈ 0.0174 µM) and 0.02 µg/mL (≈ 0.0174 µM).
